According to patent US20040152772A1, “1-butyric acid derivatives and the use thereof” (priority 2001, published 2004):

What was measured:
Novikoff hepatoma cells = assay: Proliferation of Novikoff hepatoma cells, cell count per flask after four days of cultivation; type: cell-based; conditions: FIGS. 1 and 2
Description: The Novikoff hepatoma cells that were used derived from the Tumor Bank of the German Cancer Research Center, Heidelberg (Cancer Research 1951, 17, 1010). 100,000 cells were spread out per 25 cm^2 of cultivation surface on each occasion. After having been dissolved in a solvent, such as e.g. water, diluted ethanol, dimethyl sulfoxide or a similar material that is suitable for use in cell cultures, the substance in accordance with the invention according to Example 1, or L-cycloserine, or dehydrothreonine was added to the culture medium in increasing concentrations, e.g. L-cycloserine (Compound 16) or dehydrothreonine (Compound 2) in the range of concentrations from 80 μM-5000 μM; and carbomethoxypropionyl cyanide (Compound 13) in the range of concentrations from 100 μM-300 μM. The cell count per flask was enumerated after four days of cultivation.

Novikoff cells = assay: Effect on the metabolism (flow of glycolysis) of Novikoff cells; type: cell-based; conditions: FIG. 3

SMILES	inhibition of proliferation (cell count per flask) in comparison to the control sample (Novikoff hepatoma cells; concentrations 80 μM-5000 μM)	inhibition of proliferation (cell count per flask) in comparison to the control sample (Novikoff hepatoma cells; concentrations 100 μM-300 μM)	flow of glycolysis (Novikoff cells)
C/C(O)=C(/N)C(=O)O [Compound 2, dehydrothreonine]	dose-dependent inhibition of proliferation	–	–
N[C@H]1CONC1=O [Compound 16, L-cycloserine]	dose-dependent inhibition of proliferation	–	–
COC(=O)CCC(=O)C#N [Compound 9, methyl ester of 4-cyano, 4-oxo-butanoic acid]	–	dose-dependent inhibition of proliferation	massively inhibited the flow of glycolysis
